The values that follow come from ChEMBL document CHEMBL3763135, “Synthesis and evaluation of thiophene-based guanylhydrazones (iminoguanidines) efficient against panel of voriconazole-resistant fungal isolates” (Bioorg Med Chem, 2016).

For data set [1], the species on record is Danio rerio. As to the kind of experiment: Toxicity against zebrafish embryo assessed as unhatched embryos at 50 ug/ml measured at 96 hrs post fertilization by inverted microscopic analysis. Type of data set: organism-based. The following applies: in vivo.
The subject of data set [2] is Danio rerio. As to the kind of experiment: Toxicity against zebrafish embryo assessed as yolk edema at 50 ug/ml measured at 96 hrs post fertilization by inverted microscopic analysis. The format is organism-based. Particulars: in vivo.
Data set [3] is filed under the species Danio rerio. As to the kind of experiment: Toxicity against zebrafish embryo assessed as effect on heart beat at 50 ug/ml measured at 96 hrs post fertilization by inverted microscopic analysis. The following applies: in vivo. The format is organism-based.
Data set [4] has as its system Candida albicans. As to the kind of experiment: Induction of membrane damage in Candida albicans CA5 at MIC measured after 2 hrs by concavaline-FITC/PI/DAPI-staining based fluorescence microscopic analysis relative to DMSO control. The format is functional.
Data set [5] can be described thus: Hemolytic effect in sheep RBC assessed as release of hemoglobin at 10 ug/ml after 1 hr. Type of data set: ADME, cell-based, Ovis aries, Erythrocyte. Particulars: sheep red blood cells, read-out: Activity.
Data set [6] has as its system Danio rerio. As to the kind of experiment: Toxicity against zebrafish embryo assessed as pericardial edema at 50 ug/ml measured at 96 hrs post fertilization by inverted microscopic analysis. The format is organism-based. The following applies: in vivo.
Data set [7] is filed under the species Danio rerio. As to the kind of experiment: Toxicity against zebrafish embryo assessed as head malformation at 50 ug/ml measured at 96 hrs post fertilization by inverted microscopic analysis. The format is organism-based. The following applies: in vivo.
Data set [8] is filed under the species Danio rerio. Kind of data set: Toxicity against zebrafish embryo assessed as skeletal deformities at 50 ug/ml measured at 96 hrs post fertilization by inverted microscopic analysis. The format is organism-based. The following applies: in vivo.
Data set [9] is filed under the species Danio rerio. Kind of data set: Toxicity against zebrafish embryo assessed as effect on tail tip at 50 ug/ml measured at 96 hrs post fertilization by inverted microscopic analysis. Type of data set: organism-based. Particulars: in vivo.
The species entered for data set [10] is Danio rerio. As to the kind of experiment: Toxicity against zebrafish embryo assessed as effect on otoliths at 50 ug/ml measured at 96 hrs post fertilization by inverted microscopic analysis. Type of data set: organism-based. The following applies: in vivo.
Data set [11] can be described thus: Induction of membrane damage in PC/PS liposome assessed as calcein release at MIC after 30 mins by fluorescence-based liposome leakage assay. The format is functional.
Data set [12] concerns Candida albicans. As to the kind of experiment: Fungistatic activity against Candida albicans CA5 at sub-MIC measured after 12 hrs by time-kill dependence-based spectrophotometric analysis. Type of data set: functional, organism-based.
The species entered for data set [13] is Danio rerio. As to the kind of experiment: Toxicity against zebrafish embryo assessed as growth retardation at 50 ug/ml measured at 96 hrs post fertilization by inverted microscopic analysis. Particulars: in vivo. The format is organism-based.
Data set [14] in a line: Selectivity index, ratio of IC50 for human MRC5 cell to MIC for Candida albicans ATCC 10231.
Data set [15] concerns Candida albicans. As to the kind of experiment: Induction of cell death in Candida albicans CA5 at MIC measured after 2 hrs by concavaline-FITC/PI/DAPI-staining based fluorescence microscopic analysis relative to DMSO control. The format is functional.

Molecules are shown by their SMILES. Calls of active or inactive are those of the source. The rule behind the calls is not given here.

`Cl.Cl.N=C(N)N/N=C/c1ccc(-c2ccc(/C=N/NC(=N)N)s2)cc1`: the Activity in [1] stood at 0%; in [2] it was 0%; in [3], 0%; in [4] it was 20%; in data set [6], 0%; in data set [7] it was 0%. The Activity in data set [8] is 0%; in data set [9], 0%; in data set [10], 0%; in [11], 8%; in data set [13] it was 0%. Moreover, the hemolysis at 1 h, 10 ug/ml in data set [5] amounted to 20%. For the same compound, the result in data set [12] was Active.
For the compound `Cc1ccc(-c2ccc(/C=N/NC(=N)N)s2)cc1.Cl`, the “Selectivity Index” value in data set [14] came to 2.7. Also, the result in data set [15] was inactive.
